Measurements published in patent publication US20040191297A1, “Carotenoid formulation” (priority 1997, published 2004).

Assays:
[1] = Lycopene content of rat prostate gland; format: in vivo, Fischer 344 rats; conditions: male
From the text: homogenized. […] This hexane extraction procedure was repeated 5-7 times.

in vivo = conditions: Fischer 344, rat
Description: Breast, liver and prostate tissue contain lipids which interfere with the assay. Consequently, a saponification step was required prior to organic extraction. Tissue was homogenized in 20 ml methanol to which echinenone was added as internal standard. For breast tissue, which comprise of 85% adipocytes, 8.0 ml 50% NaOH and 4.0 ml 25% sodium ascorbate was added and the mixture was homogenized. For prostate and liver tissue, which contain less lipid, 4.0 ml and 50% NaOH. and 2.0 ml sodium ascorbate were added and the mixture was
homogenized. Saponification was carried out in 50 ml tubes saturated with N2 gas overnight in a temperature controlled shaker bath at 30° C. Following saponification, 10 ml hexane was add d to each tube and vortexed for 1 minute. The mixture was then centrifuged at 2000 rpm for 10 min at 4° C. and the hexane layer was decanted and saved. This hexane extraction procedure was repeated 5-7 times. The pooled hexane extract was then dried under N2 gas at 60° C., dissolved in injection solvent and analyzed by HPLC. Lung and colon tissue were processed in an identical manner with the exception that the saponification step was omitted.

α-tocopherol [2] = assay: Liver vitamin E assay; format: in vivo, Fischer 344 rats; conditions: for Liver α-tocopherol: female
From the text: The effect of the tomato carotenoid supplement on the absorption and storage of two important fat soluble vitamins, namely, retinol and α-tocopherol, was investigated. Using established HPLC methods, a strong liner dose-response relationship was found between the lycopene content of the liver and both retinol and a-tocopherol concentration in female R-344 rats (Table 23).

α-tocopherol [3] = assay: Liver vitamin E assay; format: in vivo, Fischer 344 rats
glutathione = assay: Total glutathione assays of blood, liver and kidney; format: in vivo, Fischer 344 rats
From the text: The rationale for measuring glutathione is that the reduced form of the tripeptide thiol, glutathione (Glu-Cys-Gly), participates directly in several key intracellular reactions, including protection against free radical damage. In contrast to carotenoids, which reside in the lipid phase, glutathione is found in the aqueous phase of the cell and there is evidence that lipid and aqueous phase anti-oxidants may interact with one another in such a manner that high levels of one may “spare” or limit the deletion of the other. Total (reduced and oxidized) glutathione assays of blood, liver and kidney (Tables 20-22) were conducted.
The determination of glutathione was by HPLC with dual electrochemical detection (see Kleinman, W. A. & Richie, J. P., J. Chromatogr B 672:73-80, 1995). only 1 case, at the highest lycopene level, was there a significant increase in glutathione levels and this occurred only in the liver.

[4] = Preliminary feeding study, one male rat, 3 weeks; format: in vivo; conditions: 2.5 mM/kg diet
Description: One male rat was fed 2.5 mM lycopene (+other carotenoids)/kg diet for a period of 3 weeks. At this high dose, no change in body weight or food consumption was seen. […] The tail was brown. At necropsy, the liver was a deep red, as was the cecum and small intestine.

[5] = Fecal lycopene analysis (24 hour fecal pellets); format: in vivo, rat; conditions: for Fecal lycopene: male rat, 744 μg/g in diet
Description: Prior to termination, 3 animals from each group were placed in metabolic cages and 24-hour urine and fecal collections made for subsequent lycopene assay. Blood was collected by heart puncture under anesthesia for lycopene assay and all animals were sacrificed by CO2 anesthesia. Blood and feces were stored at −20° C. At necropsy, all major organ systems were grossly inspected. Any unusual appearing tissues were placed in formalin and saved for later histological examination.
Extraction of lycopene from diet was as follows: A sample of diet containing lycopene was suspended in the injection solvent (Table 4) and homogenized in a polytron homogenizer. Echinenone was added as an internal standard and the mixture centrifuged at 3000 rpm at 4° C. for 15 minutes. The supernatant was decanted and saved and the extraction repeated. The pooled extracts were then dried under N2 gas at 60° C. and the residue dissolved in 0.5 ml injection solvent and then subjected to HPLC analysis. The same method, with minor variations, was used for feces and for lung tissue. The efficiency of lycopene extraction from the diet is shown in Table 6 A&B. At any concentration tested the efficiency ranged from 75% at the highest concentration to 100% for the lowest concentration of lycopene.
The possibility that some lycopene decomposed upon storage prior to extraction must also be considered. […] This, no doubt, is due to the presence of water in the fecal pellet and to the geometry of the pellet. Once freeze-dried, the fecal pellet can easily be powdered, permitting easier access of the solvent to the fecal matrix.

[6] = Carotenoid content of Lycopene Suspension-supplemented diets after 7 months storage; format: physicochemical; conditions: for Carotenoid content of diet: stored at −20 °C for 7 months
Description: When the Lycopene Suspension (Henkel Corporation, La Grange, Ill.) was extracted by organic extraction methods, the major carotenoid was lycopene, but a number of other carotenoids were known to be present in tomatoes, α- and β-Carotene, phytofluene and phytoene were also present (FIGS. 6 & 7). The quantitative profile of carotenoids in the Lycopene Suspension was carried out using an HPLC system as described above, equipped with a photodiode array detector. The six major components can be seen in Table 7.
(Table 10). Note that all the major carotenoids plus the lycopene metabolite present in the Lycopene Suspension are present in the diets in the same relative proportions. However, the net loss of lycopene over 7 months was 66%, 38%, 40%, 44% and 60%, in treatment groups 1-5, respectively; in contrast, β-carotene concentrations declined by only 10% of original values over the same time period.

[7] = lyophilization + organic extraction

Question: For CC(C)=CCC/C(C)=C/C=C/C(C)=C/C=C/C(C)=C/C=C/C=C(C)/C=C/C=C(C)/C=C/C=C(\C)CCC=C(C)C [Lycopene], which “Lycopene content of prostate gland, Median” value (“Lycopene content … Median” for short) ([1]; Group 1 (1280 mg/kg diet)) is on record?
Answer: 99 ng/g

Question: What about the “Lycopene content of prostate gland, Range” value (“Lycopene content … Range” below) ([1]; Group 1 (1280 mg/kg diet)) of the same compound?
Answer: 79 to 112 ng/g

Question: And the “Lycopene content of prostate gland, mean ± SD” value (from here on “Lycopene content … mean ± SD”) ([1]; Group 1 (1280 mg/kg diet))?
Answer: 97 ± 17 ng/g

Question: And the “Lycopene content … Median” value ([1]; Group 2 (512 mg/kg diet))?
Answer: 83 ng/g

Question: What about the “Lycopene content … Range” value ([1]; Group 2 (512 mg/kg diet)) of the same compound?
Answer: 54 to 147 ng/g

Question: What about the “Lycopene content … mean ± SD” value ([1]; Group 2 (512 mg/kg diet)) of the same compound?
Answer: 95 ± 48 ng/g

Question: What about the “Lycopene content … Median” value ([1]; Group 3 (256 mg/kg diet)) of the same compound?
Answer: 35 ng/g

Question: What about the “Lycopene content … Range” value ([1]; Group 3 (256 mg/kg diet)) of the same compound?
Answer: 23 to 93 ng/g

Question: What about the “Lycopene content … mean ± SD” value ([1]; Group 3 (256 mg/kg diet)) of the same compound?
Answer: 50 ± 37 ng/g

Question: And the “Lycopene content … Median” value ([1]; Group 4 (128 mg/kg diet))?
Answer: 52 ng/g

Question: What about the “Lycopene content … Range” value ([1]; Group 4 (128 mg/kg diet)) of the same compound?
Answer: 26 to 77 ng/g

Question: What about the “Lycopene content … mean ± SD” value ([1]; Group 4 (128 mg/kg diet)) of the same compound?
Answer: 52 ± 26 ng/g

Question: And the “Lycopene content … Median” value ([1]; Group 5 (51 mg/kg diet))?
Answer: 47 ng/g

Question: What about the “Lycopene content … Range” value ([1]; Group 5 (51 mg/kg diet)) of the same compound?
Answer: 32 to 63 ng/g

Question: And the “Lycopene content … mean ± SD” value ([1]; Group 5 (51 mg/kg diet))?
Answer: 47 ± 16 ng/g

Question: And the Kp (in vivo)?
Answer: 100 to 1000

Question: And the “difference in liver α-tocopherol between controls and the highest lycopene dose” value (α-tocopherol [2]; female rats)?
Answer: 4 fold

Question: What about the “Liver α-tocopherol” value (α-tocopherol [2]; Group 1, lycopene 1280 mg/kg diet) of the same compound?
Answer: 47 μg/gm

Question: What about the “Liver α-tocopherol” value (α-tocopherol [2]; Group 3, lycopene 256 mg/kg diet) of the same compound?
Answer: 39 μg/gm

Question: What about the “Liver α-tocopherol” value (α-tocopherol [2]; Group 4, lycopene 128 mg/kg diet) of the same compound?
Answer: 46 μg/gm

Question: And the “Liver α-tocopherol” value (α-tocopherol [2]; Group 5, lycopene 51 mg/kg diet)?
Answer: 32 μg/gm

Question: What about the “Liver α-tocopherol” value (α-tocopherol [3]; female, Group 2, lycopene 512 mg/kg diet) of the same compound?
Answer: 38 μg/gm

Question: And the “Liver α-tocopherol” value (α-tocopherol [3]; male, Group 7, lycopene 1280 mg/kg diet)?
Answer: 28 μg/gm

Question: And the “Liver α-tocopherol” value (α-tocopherol [3]; male, Group 8, lycopene 512 mg/kg diet)?
Answer: 8 μg/gm

Question: And the “Liver α-tocopherol” value (α-tocopherol [3]; male, Group 9, lycopene 256 mg/kg diet)?
Answer: 23 μg/gm

Question: What about the “Liver α-tocopherol” value (α-tocopherol [3]; male, Group 11, lycopene 51 mg/kg diet) of the same compound?
Answer: 14 μg/gm

Question: What about the Kidney glutathione (glutathione; female, lycopene 51 ppm) of the same compound?
Answer: 0.900 ± 0.101^ μmol/g

Question: And the Liver glutathione (glutathione; female, lycopene 51 ppm)?
Answer: 6.01 ± 0.309 µmol/g

Question: And the Whole blood glutathione (glutathione; female, lycopene 51 ppm)?
Answer: 0.832 ± 0.158^+ μmol/g

Question: And the Kidney glutathione (glutathione; female, lycopene 128 ppm)?
Answer: 0.950 ± 0.0758^ μmol/g

Question: And the Liver glutathione (glutathione; female, lycopene 128 ppm)?
Answer: 6.54 ± 1.09^+ μmol/g

Question: What about the Whole blood glutathione (glutathione; female, lycopene 128 ppm) of the same compound?
Answer: 0.890 ± 0.202 µmol/g

Question: And the Kidney glutathione (glutathione; female, lycopene 256 ppm)?
Answer: 1.030 ± 0.414^+ μmol/g

Question: What about the Liver glutathione (glutathione; female, lycopene 256 ppm) of the same compound?
Answer: 4.87 ± 1.14 µmol/g

Question: And the Whole blood glutathione (glutathione; female, lycopene 256 ppm)?
Answer: 0.848 ± 0.0988 µmol/g

Question: What about the Kidney glutathione (glutathione; female, lycopene 512 ppm) of the same compound?
Answer: 1.090 ± 0.163^+ μmol/g

Question: What about the Liver glutathione (glutathione; female, lycopene 512 ppm) of the same compound?
Answer: 5.88 ± 0.492 µmol/g

Question: What about the Whole blood glutathione (glutathione; female, lycopene 512 ppm) of the same compound?
Answer: 0.930 ± 0.123 µmol/g

Question: What about the Kidney glutathione (glutathione; female, lycopene 1280 ppm) of the same compound?
Answer: 0.089 ± 0.045^+ μmol/g

Question: And the Liver glutathione (glutathione; female, lycopene 1280 ppm)?
Answer: 7.38 ± 0.705^+ μmol/g

Question: What about the Whole blood glutathione (glutathione; female, lycopene 1280 ppm) of the same compound?
Answer: 1.080 ± 0.104 µmol/g

Question: What about the “dose-related changes in glutathione” value (glutathione; liver, kidney or whole blood) of the same compound?
Answer: No dose-related changes

Question: And the Kidney glutathione (glutathione; male, lycopene 51 ppm)?
Answer: 0.688 ± 0.316 µmol/g

Question: What about the Liver glutathione (glutathione; male, lycopene 51 ppm) of the same compound?
Answer: 6.77 ± 1.53 µmol/g

Question: What about the Whole blood glutathione (glutathione; male, lycopene 51 ppm) of the same compound?
Answer: 1.030 ± 0.0387 µmol/g

Question: And the Kidney glutathione (glutathione; male, lycopene 128 ppm)?
Answer: 0.686 ± 0.170 µmol/g

Question: And the Liver glutathione (glutathione; male, lycopene 128 ppm)?
Answer: 5.38 ± 0.363 µmol/g

Question: And the Whole blood glutathione (glutathione; male, lycopene 128 ppm)?
Answer: 0.920 ± 0.169 µmol/g

Question: And the Kidney glutathione (glutathione; male, lycopene 256 ppm)?
Answer: 0.624 ± 0.104 µmol/g

Question: And the Liver glutathione (glutathione; male, lycopene 256 ppm)?
Answer: 4.59 ± 1.37 µmol/g

Question: And the Whole blood glutathione (glutathione; male, lycopene 256 ppm)?
Answer: 0.910 ± 0.106 µmol/g

Question: And the Kidney glutathione (glutathione; male, lycopene 512 ppm)?
Answer: 0.854 ± 0.055^+ μmol/g

Question: And the Whole blood glutathione (glutathione; male, lycopene 512 ppm)?
Answer: 0.990 ± 0.141 µmol/g

Question: What about the Kidney glutathione (glutathione; male, lycopene 1280 ppm) of the same compound?
Answer: 0.828 ± 0.128^+ μmol/g

Question: What about the Liver glutathione (glutathione; male, lycopene 1280 ppm) of the same compound?
Answer: 7.16 ± 1.95^+ μmol/g

Question: What about the Whole blood glutathione (glutathione; male, lycopene 1280 ppm) of the same compound?
Answer: 0.948 ± 0.294 µmol/g

Question: What about the “change in body weight or food consumption” value [4] of the same compound?
Answer: no change

Question: And the “24 hr fecal lycopene” value [5, 7]?
Answer: 5,406 μg

Question: And the Fecal lycopene [5, 7]?
Answer: 3,754 μg/g

Question: And the Fecal lycopene ([5]; organic extraction)?
Answer: 2,992 μg/g

Question: And the “24 hr fecal lycopene” value ([5]; organic extraction)?
Answer: 4,309 μg

Question: And the “% Efficiency (fecal output/input)” value ([5]; organic extraction)?
Answer: 44%

Question: What about the “Carotenoid content of diet” value ([6]; Diet 1, 2.5 mM/kg diet) of the same compound?
Answer: 472 μg/gm (ppm)

Question: What about the “Carotenoid content of diet” value ([6]; Diet 2, 1.0 mM/kg diet) of the same compound?
Answer: 348 μg/gm (ppm)

Question: And the “Carotenoid content of diet” value ([6]; Diet 3, 0.5 mM/kg diet)?
Answer: 168 μg/gm (ppm)

Question: And the “Carotenoid content of diet” value ([6]; Diet 4, 0.25 mM/kg diet)?
Answer: 92 μg/gm (ppm)

Question: What about the “Carotenoid content of diet” value ([6]; Diet 5, 0.10 mM/kg diet) of the same compound?
Answer: 22 μg/gm (ppm)

Question: What about the “net loss over 7 months” value ([6]; diet of treatment group 1, 7 months storage) of the same compound?
Answer: 66%

Question: And the “net loss over 7 months” value ([6]; diet of treatment group 2, 7 months storage)?
Answer: 38%

Question: And the “net loss over 7 months” value ([6]; diet of treatment group 3, 7 months storage)?
Answer: 40%

Question: And the “net loss over 7 months” value ([6]; diet of treatment group 4, 7 months storage)?
Answer: 44%

Question: And the “net loss over 7 months” value ([6]; diet of treatment group 5, 7 months storage)?
Answer: 60%
